Test results published in ChEMBL document CHEMBL1143305, “SAR and biological evaluation of analogues of a small molecule histone deacetylase inhibitor N-(2-aminophenyl)-4-((4-(pyridin-3-yl)pyrimidin-2-ylamino)methyl)benzamide (MGCD0103)” (Bioorg Med Chem Lett, 2009).
Values after ≈ are worked out from the molar mass of the structure shown. Active and inactive are the calls of the source. No cut-off for these calls is given here.

Legend:
[1] = Tmax in Sprague-Dawley rat at 5 mg/kg, po up to 6 hrs; type: ADME, organism-based; parameters: dose 5 mg/kg, route oral; conditions: in vivo
[2] = Metabolic stability in human microsomes assessed as biotransformation rate; type: ADME, Microsome
[3] = Metabolic stability in mouse microsomes assessed as biotransformation rate; type: ADME, Microsome
[4] = Metabolic stability in rat microsomes assessed as biotransformation rate; type: ADME, Microsome
[5] = Solubility at pH 1.2; type: physicochemical; conditions: buffer
[6] = Solubility at pH 6.8; type: physicochemical; conditions: buffer
[7] = Antitumor activity against human AZ-521 cells xenografted in mouse at 5 mg/kg, po administered once daily for 12 days relative to control; type: functional
[8] = Antitumor activity against human TSU-Pr1 cells xenografted in mouse at 10 mg/kg, po administered once daily for 12 days relative to control; type: functional
NCI-H460 = assay: Antitumor activity against human H460 cells xenografted in mouse at 20 mg/kg, po administered once daily for 12 days relative to control; type: functional
Mus musculus [9] = assay: Toxicity in mouse xenografted with human HCT15 cells at 5 to 20 mg/kg, po administered once daily for 12 days; type: organism-based, HCT-15; parameters: dose 5-20 mg/kg, route oral; conditions: in vivo, 288 h
Mus musculus [10] = assay: Toxicity in mouse xenografted with human AZ-521 cells at 5 to 20 mg/kg, po administered once daily for 12 days; type: organism-based; parameters: dose 5-20 mg/kg, route oral; conditions: in vivo, 288 h
HMEC [11] = assay: Antiproliferative activity against HMEC by MTT assay; type: cell-based; conditions: Homo sapiens
HMEC [12] = assay: Selectivity ratio of IC50 for HMEC to IC50 for human HCT116 cells
T-24 = assay: Induction of histone H4 hyperacetylation in human T24 cells after 16 hrs by immunoblotting; type: functional, cell-based; conditions: T-24, 16 h
HCT-116 = assay: Induction of p21WAF1/CIP1 expression in human HCT116 cells assessed as […] after 16 hrs by luciferase assay; type: functional, cell-based
Histone deacetylase 5 = Histone deacetylase 5 (Homo sapiens, UniProt Q9UQL6); assay: Inhibition of HDAC5
[13] = target: T1, Protein deacetylase HDAC6 (Homo sapiens, UniProt Q9UBN7); assay: Inhibition of HDAC6
T1 sequence (Q9UBN7 whole entry): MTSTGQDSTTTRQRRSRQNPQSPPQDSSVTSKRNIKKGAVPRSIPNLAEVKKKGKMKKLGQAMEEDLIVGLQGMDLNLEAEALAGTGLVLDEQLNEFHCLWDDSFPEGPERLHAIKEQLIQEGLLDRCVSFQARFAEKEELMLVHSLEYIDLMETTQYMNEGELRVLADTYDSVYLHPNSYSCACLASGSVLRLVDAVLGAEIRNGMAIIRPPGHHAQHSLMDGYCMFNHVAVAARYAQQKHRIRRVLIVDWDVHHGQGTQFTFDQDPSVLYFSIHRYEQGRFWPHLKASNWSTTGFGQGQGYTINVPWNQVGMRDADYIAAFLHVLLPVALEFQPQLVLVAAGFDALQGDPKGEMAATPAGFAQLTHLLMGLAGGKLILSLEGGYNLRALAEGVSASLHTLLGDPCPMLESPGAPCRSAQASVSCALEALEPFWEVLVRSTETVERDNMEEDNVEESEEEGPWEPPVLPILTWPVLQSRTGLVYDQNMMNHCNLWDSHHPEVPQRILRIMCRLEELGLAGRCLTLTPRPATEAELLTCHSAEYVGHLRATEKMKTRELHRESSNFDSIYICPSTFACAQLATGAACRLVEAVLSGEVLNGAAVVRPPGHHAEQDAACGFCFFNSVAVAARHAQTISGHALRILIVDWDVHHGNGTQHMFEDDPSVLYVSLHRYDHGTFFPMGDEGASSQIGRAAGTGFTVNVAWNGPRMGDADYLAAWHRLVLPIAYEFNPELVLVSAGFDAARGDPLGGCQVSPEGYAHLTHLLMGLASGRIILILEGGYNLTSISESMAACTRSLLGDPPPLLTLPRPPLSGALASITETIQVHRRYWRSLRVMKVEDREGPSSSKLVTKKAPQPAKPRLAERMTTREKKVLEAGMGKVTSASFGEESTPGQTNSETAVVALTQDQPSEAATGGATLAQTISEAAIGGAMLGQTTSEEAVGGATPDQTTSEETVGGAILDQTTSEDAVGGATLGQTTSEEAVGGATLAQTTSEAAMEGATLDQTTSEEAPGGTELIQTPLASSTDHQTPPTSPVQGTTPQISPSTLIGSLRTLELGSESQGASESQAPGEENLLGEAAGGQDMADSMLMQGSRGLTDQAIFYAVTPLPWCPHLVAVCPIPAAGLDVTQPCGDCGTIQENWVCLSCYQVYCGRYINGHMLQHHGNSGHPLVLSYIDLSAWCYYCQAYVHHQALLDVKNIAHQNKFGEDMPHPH

Histone deacetylase 7 = target: T2, Histone deacetylase 7 (Homo sapiens, UniProt Q8WUI4); assay: Inhibition of HDAC7
T2 sequence (Q8WUI4 whole entry): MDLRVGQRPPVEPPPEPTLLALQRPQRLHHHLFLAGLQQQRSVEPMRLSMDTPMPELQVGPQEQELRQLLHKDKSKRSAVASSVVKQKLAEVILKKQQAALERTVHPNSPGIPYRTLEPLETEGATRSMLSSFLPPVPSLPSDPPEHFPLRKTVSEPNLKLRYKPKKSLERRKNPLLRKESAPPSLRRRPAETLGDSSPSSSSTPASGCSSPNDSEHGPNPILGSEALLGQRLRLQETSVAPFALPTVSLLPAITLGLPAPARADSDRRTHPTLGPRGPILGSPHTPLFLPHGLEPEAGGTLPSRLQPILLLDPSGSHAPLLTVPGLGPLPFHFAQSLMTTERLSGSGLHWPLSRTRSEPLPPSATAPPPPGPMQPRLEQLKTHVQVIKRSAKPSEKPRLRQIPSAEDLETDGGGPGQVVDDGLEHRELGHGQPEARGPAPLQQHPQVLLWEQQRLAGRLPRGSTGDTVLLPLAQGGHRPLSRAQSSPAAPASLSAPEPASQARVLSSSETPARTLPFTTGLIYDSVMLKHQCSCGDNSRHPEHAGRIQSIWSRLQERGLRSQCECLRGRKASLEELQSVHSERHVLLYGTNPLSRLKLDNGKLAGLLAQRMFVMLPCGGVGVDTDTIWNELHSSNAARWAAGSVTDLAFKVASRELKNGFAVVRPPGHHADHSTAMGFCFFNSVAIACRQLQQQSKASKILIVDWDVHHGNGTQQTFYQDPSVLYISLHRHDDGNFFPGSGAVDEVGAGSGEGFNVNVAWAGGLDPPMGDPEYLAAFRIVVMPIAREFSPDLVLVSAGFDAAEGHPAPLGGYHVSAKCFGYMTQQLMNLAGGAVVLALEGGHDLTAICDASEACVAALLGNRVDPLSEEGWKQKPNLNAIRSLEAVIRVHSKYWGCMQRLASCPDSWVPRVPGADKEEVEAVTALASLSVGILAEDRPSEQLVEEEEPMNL

Histone deacetylase 5, sequence (Q9UQL6 whole entry): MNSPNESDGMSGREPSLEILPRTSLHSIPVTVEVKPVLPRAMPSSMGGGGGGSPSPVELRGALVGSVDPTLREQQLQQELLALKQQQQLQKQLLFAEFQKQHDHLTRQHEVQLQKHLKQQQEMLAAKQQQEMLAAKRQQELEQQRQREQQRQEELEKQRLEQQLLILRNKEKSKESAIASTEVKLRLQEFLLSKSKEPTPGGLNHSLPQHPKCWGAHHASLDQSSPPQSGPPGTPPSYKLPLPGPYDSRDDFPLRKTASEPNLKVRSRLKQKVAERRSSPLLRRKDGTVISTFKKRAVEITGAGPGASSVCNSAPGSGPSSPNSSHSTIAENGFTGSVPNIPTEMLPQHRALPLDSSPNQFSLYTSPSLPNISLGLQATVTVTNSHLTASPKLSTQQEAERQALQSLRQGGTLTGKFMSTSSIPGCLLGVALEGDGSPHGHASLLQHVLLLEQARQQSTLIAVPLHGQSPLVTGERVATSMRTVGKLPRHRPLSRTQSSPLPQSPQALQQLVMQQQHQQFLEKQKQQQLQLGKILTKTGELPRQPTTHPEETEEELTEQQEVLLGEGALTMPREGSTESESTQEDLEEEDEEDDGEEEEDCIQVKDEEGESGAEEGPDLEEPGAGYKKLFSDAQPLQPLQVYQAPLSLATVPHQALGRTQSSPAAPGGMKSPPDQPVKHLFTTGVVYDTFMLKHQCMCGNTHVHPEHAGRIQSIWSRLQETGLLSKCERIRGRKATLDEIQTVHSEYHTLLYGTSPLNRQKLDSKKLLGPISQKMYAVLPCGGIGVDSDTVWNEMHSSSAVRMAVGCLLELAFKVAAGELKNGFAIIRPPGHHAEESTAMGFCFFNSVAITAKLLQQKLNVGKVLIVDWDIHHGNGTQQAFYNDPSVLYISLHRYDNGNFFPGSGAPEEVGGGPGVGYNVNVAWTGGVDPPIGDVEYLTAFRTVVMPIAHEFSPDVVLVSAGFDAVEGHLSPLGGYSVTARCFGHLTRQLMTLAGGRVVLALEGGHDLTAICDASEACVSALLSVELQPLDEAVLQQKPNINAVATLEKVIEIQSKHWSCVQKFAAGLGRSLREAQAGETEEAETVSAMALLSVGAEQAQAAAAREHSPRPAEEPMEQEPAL

Compound Nc1ccccc1NC(=O)c1ccc(CNc2nccc(-c3ccn[nH]3)n2)cc1 has a Tmax [1] of 30 min, an Activity [2] of 0.01 nmol/mg/min and an Activity [3] of 0.054 nmol/mg/min. For the same compound, the Activity [4] was 0.043 nmol/mg/min, the solubility [5] was over 1000 µg/mL and the solubility [6] was 77 µg/mL (≈ 200 µM). It also gave a T/C [7] of 43%, a T/C [8] of 61% and a T/C (NCI-H460) of 34%. For the same compound, the Activity (Mus musculus [9]) was “Non-toxic”, the Activity (Mus musculus [10]) was “Non-toxic” and the IC50 (HMEC [11]) was 24 µM. The “Ratio IC50” value (HMEC [12]) was over 30, the EC50 (T-24) was 1 µM and the Activity (HCT-116) was “inactive”. It also gave an IC50 (Histone deacetylase 5) of over 10 µM, an IC50 [13] of over 20 µM and an IC50 (Histone deacetylase 7) of over 20 µM.
